Test results: patent publication US5571805A, “Antibiotic compounds” (Zeneca Limited, priority 1992, dated 1996)
≈ marks a conversion by molar mass, not a printed value.

Key:
[1] = tested on: Enterobacter cloacae P99-; test: MIC by agar-dilution (Diagnostic Sensitivity Test), inoculum 10^4 CFU/spot; format: cell-based; details: P99, read-out: minimum inhibitory concentration (MIC)
Text: (§1) The pharmaceutically acceptable carbapenem compounds of the present invention are useful antibacterial agents having a broad spectrum of activity in vitro against standard laboratory microorganisms, both Gram-negative and Gram-positive, which are used to screen for activity against pathogenic bacteria. The antibacterial spectrum and potency of a particular compound may be determined in a standard test system. In particular the carbapenems of the present invention show good stability to beta-lactamases and have a particularly good elimination half life in mammals. In general compounds show significant improvement over imipenem.
(§2) The following results were obtained for representative compounds on a standard in vitro test system using Diagnostic Sensitivity Test. The antibacterial activity is described in terms of the minimum inhibitory concentration (MIC) determined by the agar-dilution technique with an inoculum size of 10^4 CFU/spot.

[2] = tested on: P. morganii I + 001; test: as above; format: cell-based; details: Morganella morganii, read-out: minimum inhibitory concentration (MIC)
Text: as §1, §2

[3] = tested on: E. coli DCO; test: as above; format: cell-based; details: Escherichia coli, read-out: minimum inhibitory concentration (MIC)
Text: as §1, §2

[4] = tested on: S. aureus Oxford; test: as above; format: cell-based; details: Staphylococcus aureus, read-out: minimum inhibitory concentration (MIC)
Text: as §1, §2

[5] = tested on: B. fragilis AMP S; test: as above; format: cell-based; details: Bacteroides fragilis, read-out: minimum inhibitory concentration (MIC)
Text: as §1, §2

[6] = tested on: Gram positive and negative, aerobic and anaerobic bacteria; details: imipenem, background; cited from earlier work

| SMILES | MIC [1] | MIC [2] | MIC [3] | MIC [4] | MIC [5] | spectrum of antibacterial activity [6] |
| --- | --- | --- | --- | --- | --- | --- |
| C[C@@H](O)[C@H]1C(=O)N2C(C(=O)O)=C(S[C@@H]3CN[C@H](C(=O)Nc4cccc(S(=O)(=O)O)c4)C3)[C@H](C)[C@H]12 [EXAMPLE 1, (1R,5S,6S,8R,2'S,4'S)-2-(2-(3-Sulfophenylcarbamoyl)pyrrolidin-4-ylthio)-6-(1-hydroxyethyl)-1-methylcarbapenem-3-carboxylic acid] | 0.008 µg/mL (≈ 0.0156 µM) | 0.015 µg/mL (≈ 0.0293 µM) | 0.015 µg/mL (≈ 0.0293 µM) | 0.125 µg/mL (≈ 0.244 µM) | 0.25 µg/mL (≈ 0.489 µM) | – |
| C[C@@H](O)[C@H]1C(=O)N2C(C(=O)O)=C(SCCN=CN)C[C@H]12 [imipenem, N-formimidoyl thienamycin] | – | – | – | – | – | broad spectrum of antibacterial activity |
